Assays:
Tribolium confusum [1] = assay: Contact test on Tribolium confusum (Table 12); type: in vivo; details: Tribolium confusum, 24 h; for mortality at 110 µg/disc: 0.11 mg/disc; for mortality at 330 µg/disc: 0.33 mg/disc; for mortality at 1000 µg/disc: 1.00 mg/disc; for mortality at 3000 µg/disc: 3.00 mg/disc
Protocol: (§1) The active ingredient is dissolved in a 1:2 mixture of oil and acetone; filter paper discs (Whatman No. 1, diameter 9 cm) are impregnated with the solutions of the corresponding stereoisomers and enantiomer-pairs, respectively. The acetone is allowed to evaporate, whereupon the insects are exposed to filter papers discs placed in Petri-dishes. Three parallels are used on each dose and 15 insects are placed into each Petri-dish. The percental mortality is determined after 24 hours. The corrected percent mortality is calculated by means of the Abbot Formula.
It appears from Table 12 that the increased activity shown in Example 41 is due to the synergistic effect of the trans-isomers to Tribolium confusum.

T. confusum [2] = assay: Activity as function of time, toxic symptoms (Table 16); type: in vivo, flour beetle (T. confusum), imagos
Protocol: as §1
Activity of cypermethrin stereoisomer-pairs as function of time on flour beetle (T. Confusum).
Flour beetle (T. confusum) imagos are exposed in Petri-dishes according to the method described in Example 43. For each dose 3 parallels are used and 15 animals are applied for each parallel test. In each point of time the insects lying on their backs are counted and the percental results are expressed in Table 16.

Tribolium confusum [3] = assay: Contact test, mixtures of Ia and Ib of various ratio (Table 13); type: in vivo, flour beetle (Tribolium confusum)
Protocol: as §1
In Table 13 the insecticidal effect of mixtures of enantiomer-pairs Ia and Ib of various ratio is shown on flour beetle (Tribolium confusum). The test method is that disclosed in Example 43.

Musca domestica [4] = assay: Filter paper disc contact test (Table 11); type: in vivo, house fly (Musca domestica); details: Musca domestica, 24 h
Protocol: In Table 1 the activity of various stereoisomers of cypermethrin on the house fly (Musca domestica) is shown.
as §1

Colorado potato beetle = assay: Topical test on Colorado potato beetle (Table 14); type: in vivo, Colorado potato beetle (Leptinotersa decemlineata), imago
Protocol: In Table 14 the activity on Colorado potato beetle is shown.
The test materials are dissolved in 2-ethoxyethanol (Cellosolve). One 0.3 μl drop of the solution is applied to the abdominal sterna of the imago. The treatment is carried out by using 2 parallels and 10 insects for each dose. […]

T. confusum [5] = assay: Topical LD50 (Table 3); type: in vivo, 1-2 weeks' old imagos; details: topical, abdominal side
Protocol: (§2) In Table 3 the LD50 values of the Ig and Ii isomers and those of the Ib isomer-pair are disclosed. The data are topically measured.
(§3) The active ingredients are dissolved in 2-ethoxyethanol (cellosolve) and 0.3 μl droplets of the solutions are applied onto the dorsal cuticulum of 3-5 days' old female house flies. 10 animals are used and 2 parallels are carried out for each dose. The tests are carried out for 5 dose levels between activity limits of 0% and 100%. After treatment the flies are placed into glass vials. Mortality is determined after 24 hours. Data are transformed to log10 dosage and probit mortality. LD50 and confidence interval values are calculated by linear regression analysis of the log-probit data. The expected values required for the calculation of synergism are obtained by means of harmonic average. The synergistic factor is the quotient of the expected and measured values.
The active ingredients are dissolved in 2-ethoxyethanol and 0.3 μl droplets of the solutions are applied onto the abdominal side of 1-2 weeks' old imagos. Treatment is carried out with 2 parallels and 20 animals for each dose by using 5 dose levels in the range between activity limits of 0% and 100%. Evaluation and determination of LD50 values and synergistic factors are carried out as described in Example 21.

Musca domestica [6] = assay: Topical LD50 (Table 3); type: in vivo, house fly (Musca domestica), 3-5 days' old females; details: topical, dorsal cuticulum; 24 hours
Protocol: as §2, §3

T. confusum [7] = assay: Contact method, synergism between stereoisomers (Table 2); type: in vivo; details: Tribolium confusum, 24 h
Protocol: The stereoisomers are dissolved in a 1:2 mixture of mineral oil and acetone and filter paper discs (Whatman No. 1., diameter 9 cm) are impregnated with the corresponding dosage of the solution of the active ingredient. The acetone is allowed to evaporate and the insects are examined on filter paper discs placed into Petri-dishes. Three parallels are used for each dose and 15 animals are placed in each Petri-dish. Mortality rate is determined after 24 hours. The corrected mortality % data are calculated by means of the Abbot formula.
The test is carried out on T. confusum and the following results are obtained by the contact method for various active ingredient doses.
The test is carried out according to the method described in Example 20.

CC1(C)[C@H](C=C(Cl)Cl)[C@@H]1C(=O)O[C@@H](C#N)c1cccc(Oc2ccccc2)c1 [Ih]
mortality at 110 µg/disc (Tribolium confusum [1]): 0%
mortality at 330 µg/disc (Tribolium confusum [1]): 38%
mortality at 1000 µg/disc (Tribolium confusum [1]): 80%
mortality at 3000 µg/disc (Tribolium confusum [1]): 100%
% of insects showing toxic symptoms (T. confusum [2]; 30 minutes): 0%
% of insects showing toxic symptoms (T. confusum [2]; 30 minutes, 0.33 mg/disc): 0%
% of insects showing toxic symptoms (T. confusum [2]; 30 minutes, 1.00 mg/disc): 0%
% of insects showing toxic symptoms (T. confusum [2]; 30 minutes, 3.00 mg/disc): 0%
% of insects showing toxic symptoms (T. confusum [2]; 60 minutes): 0%
% of insects showing toxic symptoms (T. confusum [2]; 60 minutes, 0.33 mg/disc): 0%
% of insects showing toxic symptoms (T. confusum [2]; 60 minutes, 1.00 mg/disc): 0%
% of insects showing toxic symptoms (T. confusum [2]; 60 minutes, 3.00 mg/disc): 8%
% of insects showing toxic symptoms (T. confusum [2]; 120 minutes): 0%
% of insects showing toxic symptoms (T. confusum [2]; 120 minutes, 0.33 mg/disc): 0%
% of insects showing toxic symptoms (T. confusum [2]; 120 minutes, 1.00 mg/disc): 0%
% of insects showing toxic symptoms (T. confusum [2]; 120 minutes, 3.00 mg/disc): 67%
% of insects showing toxic symptoms (T. confusum [2]; 180 minutes): 0%
% of insects showing toxic symptoms (T. confusum [2]; 180 minutes, 0.33 mg/disc): 0%
% of insects showing toxic symptoms (T. confusum [2]; 180 minutes, 1.00 mg/disc): 0%
% of insects showing toxic symptoms (T. confusum [2]; 180 minutes, 3.00 mg/disc): 88%

CC1(C)C(C=C(Cl)Cl)C1C(=O)OC(C#N)c1cccc(Oc2ccccc2)c1 (stereo not shown) [5:5]
24 hours' mortality % (Tribolium confusum [3]; 0.02 mg/disc, 1440 min): 0%
24 hours' mortality % (Tribolium confusum [3]; 0.06 mg/disc, 1440 min): 43%
mortality at 250 µg/disc (Tribolium confusum [3]; Tribolium confusum, 24 h, 0.25 mg/disc): 100%
mortality at 1000 µg/disc (Tribolium confusum [3]; Tribolium confusum, 24 h, 1.00 mg/disc): 100%

CC1(C)[C@H](C(=O)O[C@H](C#N)c2cccc(Oc3ccccc3)c2)[C@@H]1C=C(Cl)Cl [If]
mortality at 40 µg/disc (Musca domestica [4]; 0.04 mg/disc): 68%
mortality at 110 µg/disc (Musca domestica [4]; 0.11 mg/disc): 93%
mortality at 330 µg/disc (Musca domestica [4]; 0.33 mg/disc): 100%
mortality at 1000 µg/disc (Musca domestica [4]; 1.00 mg/disc): 100%
mortality at 3000 µg/disc (Musca domestica [4]; 3.00 mg/disc): 100%
mortality at 330 µg/disc (Tribolium confusum [1]): 100%
mortality at 1000 µg/disc (Tribolium confusum [1]): 100%
mortality at 3000 µg/disc (Tribolium confusum [1]): 100%
% of insects showing toxic symptoms (T. confusum [2]; 30 minutes): 0%
% of insects showing toxic symptoms (T. confusum [2]; 30 minutes, 0.33 mg/disc): 0%
% of insects showing toxic symptoms (T. confusum [2]; 30 minutes, 1.00 mg/disc): 48%
% of insects showing toxic symptoms (T. confusum [2]; 30 minutes, 3.00 mg/disc): 64%
% of insects showing toxic symptoms (T. confusum [2]; 60 minutes): 0%
% of insects showing toxic symptoms (T. confusum [2]; 60 minutes, 0.33 mg/disc): 5%
% of insects showing toxic symptoms (T. confusum [2]; 60 minutes, 1.00 mg/disc): 84%
% of insects showing toxic symptoms (T. confusum [2]; 60 minutes, 3.00 mg/disc): 100%
% of insects showing toxic symptoms (T. confusum [2]; 120 minutes): 0%
% of insects showing toxic symptoms (T. confusum [2]; 120 minutes, 0.33 mg/disc): 40%
% of insects showing toxic symptoms (T. confusum [2]; 120 minutes, 1.00 mg/disc): 100%
% of insects showing toxic symptoms (T. confusum [2]; 120 minutes, 3.00 mg/disc): 100%
% of insects showing toxic symptoms (T. confusum [2]; 180 minutes): 39%
% of insects showing toxic symptoms (T. confusum [2]; 180 minutes, 0.33 mg/disc): 61%
% of insects showing toxic symptoms (T. confusum [2]; 180 minutes, 1.00 mg/disc): 100%
% of insects showing toxic symptoms (T. confusum [2]; 180 minutes, 3.00 mg/disc): 100%

CC1(C)C(C=C(Cl)Cl)C1C(=O)OC(C#N)c1cccc(Oc2ccccc2)c1 (stereo not shown) [Ia:Ib = 3:7]
24 hours' mortality % (Colorado potato beetle; 0.05 μg/beetle): 45%
24 hours' mortality % (Colorado potato beetle; 0.10 μg/beetle): 65%
24 hours' mortality % (Colorado potato beetle; 0.20 μg/beetle): 75%
24 hours' mortality % (Colorado potato beetle; 0.40 μg/beetle): 85%
24 hours' mortality % (Tribolium confusum [3]; 0.02 mg/disc, 1440 min): 20%
24 hours' mortality % (Tribolium confusum [3]; 0.06 mg/disc, 1440 min): 81%
24 hours' mortality % (Tribolium confusum [3]; 0.25 mg/disc): 100%
24 hours' mortality % (Tribolium confusum [3]; 1.00 mg/disc): 100%

CC1(C)[C@@H](C=C(Cl)Cl)[C@@H]1C(=O)O[C@@H](C#N)c1cccc(Oc2ccccc2)c1 [Ii]
LD50 measured (T. confusum [5]): 1291.8 ng/insect
mortality at 110 µg/disc (Tribolium confusum [1]): 0%
mortality at 330 µg/disc (Tribolium confusum [1]): 0%
mortality at 1000 µg/disc (Tribolium confusum [1]): 71%
mortality at 3000 µg/disc (Tribolium confusum [1]): 90%
LD50 measured (Musca domestica [6]): 141.9 ng/insect
% of insects showing toxic symptoms (T. confusum [2]; 30 minutes): 0%
% of insects showing toxic symptoms (T. confusum [2]; 30 minutes, 0.33 mg/disc): 0%
% of insects showing toxic symptoms (T. confusum [2]; 30 minutes, 1.00 mg/disc): 0%
% of insects showing toxic symptoms (T. confusum [2]; 30 minutes, 3.00 mg/disc): 15%
% of insects showing toxic symptoms (T. confusum [2]; 60 minutes): 0%
% of insects showing toxic symptoms (T. confusum [2]; 60 minutes, 0.33 mg/disc): 0%
% of insects showing toxic symptoms (T. confusum [2]; 60 minutes, 1.00 mg/disc): 0%
% of insects showing toxic symptoms (T. confusum [2]; 60 minutes, 3.00 mg/disc): 70%
% of insects showing toxic symptoms (T. confusum [2]; 120 minutes): 0%
% of insects showing toxic symptoms (T. confusum [2]; 120 minutes, 0.33 mg/disc): 0%
% of insects showing toxic symptoms (T. confusum [2]; 120 minutes, 1.00 mg/disc): 0%
% of insects showing toxic symptoms (T. confusum [2]; 120 minutes, 3.00 mg/disc): 100%
% of insects showing toxic symptoms (T. confusum [2]; 180 minutes): 0%
% of insects showing toxic symptoms (T. confusum [2]; 180 minutes, 0.33 mg/disc): 0%
% of insects showing toxic symptoms (T. confusum [2]; 180 minutes, 1.00 mg/disc): 0%
% of insects showing toxic symptoms (T. confusum [2]; 180 minutes, 3.00 mg/disc): 100%
mortality at 110 µg/disc (T. confusum [7]; 0.11 mg/disc): 0%
mortality at 330 µg/disc (T. confusum [7]; 0.33 mg/disc): 0%
mortality at 1000 µg/disc (T. confusum [7]; 1.00 mg/disc): 71%
mortality at 3000 µg/disc (T. confusum [7]; 3.00 mg/disc): 90%
